Measurements published in US20250049787A1, “TREATMENT FOR ACUTE MYELOID LEUKEMIA OR LYMPHOMA” (UNIVERSITY HEALTH NETWORK, priority 2021, published 2025).
Structures can show the parent of a compound that is named as a salt.

Assays:
[1] = tested on: OCI-LY3; test: Growth inhibition, Alamar Blue; format: cell-based; settings: Homo sapiens, 72 h; OCI-LY3, NHL, ABC-DLBCL; 3 days
Procedure: (§1) Cell lines were obtained from American Type Culture Collection (ATCC) and maintained according to the supplier's instructions, and from Dr. Mark Minden (Princess Margaret Cancer Centre, Toronto, Canada). Short tandem repeat (STR) profiling was used to verify authenticity of the cell lines. Peripheral blood from healthy human donors was obtained from the Hematology Malignancy Tissue Bank at the University Health Network. Peripheral blood mononuclear cells (PBMC) were prepared from the blood by density gradient centrifugation using Ficoll-Paque PLUS by manufacturer's instructions (GE Healthcare Life Sciences). […] Compound (I) tartrate was prepared as a 10 mM stock solution in 100% DMSO. The stock solution was diluted with RPMI-1640 (Invitrogen) containing 10% FBS (fetal bovine serum) such that the final concentrations ranged from 300 fM to 300 μM. Aliquots (20 μL) from each concentration were overlaid to 180 μL of pre-seeded cells to achieve final concentrations of 30 fM to 30 μM. After 3 days, cell growth in each well was assessed by Alamar Blue assay reagent (Invitrogen). Raw fluorescence (λEM=590 nm) values were adjusted by subtracting the average of the baseline readings from untreated cells assessed one day after cell seeding. Relative cell growth was calculated by comparing to DMSO-treated cells. The concentrations at which cell growth was inhibited by 50% (growth inhibition IC50) were calculated using GraphPad PRISM software (GraphPad Software Inc.).

[2] = tested on: JURKAT; test: Growth inhibition, Alamar Blue; format: cell-based; settings: Homo sapiens, 72 h, T-ALL, 3 days
Procedure: as §1

[3] = tested on: RS4; 11; test: Growth inhibition, Alamar Blue; format: cell-based; settings: Homo sapiens, 72 h, 11, B-ALL, 3 days
Procedure: as §1

[4] = tested on: NALM-16; test: Growth inhibition, Alamar Blue; format: cell-based; settings: Homo sapiens, NALM16, 72 h; NALM-16, B-ALL; 3 days
Procedure: as §1

[5] = tested on: MOLT-4; test: Growth inhibition, Alamar Blue; format: cell-based; settings: Homo sapiens, 72 h; MOLT-4, T-ALL; 3 days
Procedure: as §1

[6] = tested on: OCI-AML3; test: Growth inhibition, Alamar Blue; format: cell-based; settings: Homo sapiens, OCI-AML-3, 72 h; OCI-AML3, AML M4; 3 days
Procedure: as §1

[7] = tested on: REH; test: Growth inhibition, Alamar Blue; format: cell-based; settings: Homo sapiens, 72 h, B-ALL, 3 days
Procedure: as §1

[8] = tested on: NB4; test: Growth inhibition, Alamar Blue; format: cell-based; settings: Homo sapiens, NB-4, 72 h; NB4, AML M3; 3 days
Procedure: as §1

[9] = tested on: OCI-AML2; test: Growth inhibition, Alamar Blue; format: cell-based; settings: Homo sapiens, 72 h; OCI-AML2, AML M4; 3 days
Procedure: as §1

[10] = tested on: SU-DHL-8; test: Growth inhibition, Alamar Blue; format: cell-based; settings: Homo sapiens, 72 h; SU-DHL-8, NHL, GCB-DLBCL; 3 days
Procedure: as §1

[11] = tested on: MOLM-13; test: Growth inhibition, Alamar Blue; format: cell-based; settings: Homo sapiens, 72 h; MOLM-13, AML M5; FLT3 ITD + wild-type, protein not expressed; 3 days
Procedure: as §1

[12] = tested on: PBMC; test: Growth inhibition, Alamar Blue; format: cell-based; settings: 72 h, NORMAL (healthy human donors), 3 days
Procedure: as §1

[13] = tested on: FLT3-ITD-expressing 32D cells (20 ng/ml mouse IL-3); test: Growth inhibition, 32D transfectants with mouse IL-3; format: cell-based; settings: 32D transfectant FLT3-ITD
Procedure: as §1, with “The concentrations at which cell growth was inhibited by 50% (growth inhibition IC50) were calculated using GraphPad PRISM software (GraphPad Software Inc.).” left out

[14] = target: T1, TAK1/MAP3K7 (Homo sapiens, UniProt O43318); test: Radiometric HotSpot kinase assay, TAK1; format: biochemical; settings: ATP 20 μM; casein 1 mg/mL
T1 construct: purchased Reaction Biology Corp. (Malvern, PA, USA)
Procedure: Kinase IC50 values were determined by Reaction Biology Corp. (Malvern, PA, USA) in the Radiometric HotSpot™ Assay using recombinantly expressed kinase enzymes. Compound (I) was tested in a 10-dose IC50 curve in duplicate. Enzymes were tested at the Km [ATP] for each enzyme using the Reaction Biology binning structure. Kinase reactions were initiated by the addition of protein or peptide substrate and [γ-^33P]-adenosine triphosphate (ATP). Phosphorylated substrates were captured by spotting of the reaction mix on filter membranes, and enzymatic activity was quantified by liquid scintillation counting. Substrates and ATP concentrations are as follows: • FLT3: Peptide substrate, [EAIYAAPFAKKK], 5 μM: ATP 50 μM • FLT3-ITD (internal tandem duplication): Peptide substrate, [EAIYAAPFAKKK], 20 μM: ATP, 30 μM • FLT3 (D835Y): Peptide substrate, [EAIYAAPFAKKK], 5 μM: ATP 20 μM • TAK1: Casein, 1 mg/mL: ATP, 20 μM

T1 sequence (O43318 1-303 limits assumed): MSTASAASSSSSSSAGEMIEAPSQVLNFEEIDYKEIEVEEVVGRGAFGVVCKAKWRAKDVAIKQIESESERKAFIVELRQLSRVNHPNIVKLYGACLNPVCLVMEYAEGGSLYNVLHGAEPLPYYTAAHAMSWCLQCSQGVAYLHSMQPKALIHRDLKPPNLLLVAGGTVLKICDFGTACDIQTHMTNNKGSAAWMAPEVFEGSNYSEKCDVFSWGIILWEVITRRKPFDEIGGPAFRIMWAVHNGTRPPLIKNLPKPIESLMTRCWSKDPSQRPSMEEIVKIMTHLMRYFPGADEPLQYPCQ

CN1CCN(c2ccc3nc(-c4c(N)c5ccsc5[nH]c4=O)[nH]c3c2)CC1 [Compound (I) tartrate, 4-amino-5-(6-(4-methylpiperazin-1-yl)-1H-benzo[d]imidazol-2-yl)thieno[2,3-b]pyridin-6(7H)-one]
IC50 [1]: 240 nM
IC50 [2]: 3400 nM
IC50 [3]: 1700 nM
IC50 [4]: 1100 nM
IC50 [5]: 1600 nM
IC50 [6]: ≥ 30000 nM
IC50 [7]: 1400 nM
IC50 [8]: 940 nM
IC50 [9]: 1500 nM
IC50 [10]: 2600 nM
IC50 [11]: 1900 nM
IC50 [12]: 14000 nM
IC50 [13]: 1440 nM
IC50 [14]: 18 nM
